Test results from patent publication US20240360146A1, “BRUTON'S TYROSINE KINASE AND MUTANT DEGRADER, COMPOSITION AND APPLICATION THEREOF” (HANGZHOU HEALZEN THERAPEUTICS CO., LTD., priority 2021, published 2024).

target: T1, BTK (Homo sapiens, UniProt Q06187); test: BTK degradation activity test in Mino cells; format: cell-based; settings: 16 h incubation, Western blot or Elisa
T1 construct: endogenous in cells; host or cells: Mino cells
Method in brief: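 DC50 derived by curve fitting of BTK degradation rates versus untreated control across compound concentrations. Mino cells were exposed for 16 h; BTK levels in lysates, normalised via BCA protein, measured by Western blot or ELISA.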

T1 sequence (Q06187 whole entry): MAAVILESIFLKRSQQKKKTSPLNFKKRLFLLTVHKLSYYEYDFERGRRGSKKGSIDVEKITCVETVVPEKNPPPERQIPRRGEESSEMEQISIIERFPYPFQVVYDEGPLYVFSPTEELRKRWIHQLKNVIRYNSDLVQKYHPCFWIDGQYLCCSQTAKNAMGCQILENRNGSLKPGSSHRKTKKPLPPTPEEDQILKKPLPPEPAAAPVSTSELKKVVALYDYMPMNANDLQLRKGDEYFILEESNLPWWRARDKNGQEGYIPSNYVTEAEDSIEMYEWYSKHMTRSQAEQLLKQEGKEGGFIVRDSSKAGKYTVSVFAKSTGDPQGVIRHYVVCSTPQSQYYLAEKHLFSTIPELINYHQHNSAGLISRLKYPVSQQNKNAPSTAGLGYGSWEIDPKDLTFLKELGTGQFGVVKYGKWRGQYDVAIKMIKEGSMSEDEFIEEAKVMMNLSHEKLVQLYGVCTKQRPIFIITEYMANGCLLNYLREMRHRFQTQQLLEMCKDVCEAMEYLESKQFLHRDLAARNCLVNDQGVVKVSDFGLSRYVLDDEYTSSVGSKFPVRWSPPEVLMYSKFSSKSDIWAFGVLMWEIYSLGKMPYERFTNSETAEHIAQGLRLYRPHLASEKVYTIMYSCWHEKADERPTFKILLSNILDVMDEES

| DC50 | SMILES |
| --- | --- |
| < 1 nM | NC(=O)c1nnc(N2CCCC(N3CCN(c4ccccc4)C3=O)C2)nc1Nc1ccc(C2CCN(CC3CCN(c4ccc5c(c4)C(=O)N(C4CCC(=O)NC4=O)C5=O)C3)CC2)cc1 (stereo not drawn) [Compound 089, 5-((4-(1-((1-(2-(2,6-dioxopiperidin-3-yl)-1,3-dioxoisoindol-5-yl)pyrrolidin-3-yl)methyl)piperidin-4-yl)phenyl)amino)-3-(3-(2-oxo-3-phenylimidazolin-1-yl)piperidin-1-yl)-1,2,4-triazin-6-carboxamide] |
| < 1 nM | NC(=O)c1nnc(N2CCCC(N3CCN(c4ccccc4)C3=O)C2)nc1Nc1ccc(C2CCN(C3CN(c4ccc5c(c4)C(=O)N(C4CCC(=O)NC4=O)C5=O)C3)CC2)cc1 (stereo not drawn) [Compound 090, 5-((4-(1-(1-(2-(2,6-dioxopiperidin-3-yl)-1,3-dioxoisoindol-5-yl)azetidin-3-yl)piperidin-4-yl)phenyl)amino)-3-(3-(2-oxo-3-phenylimidazolin-1-yl)piperidin-1-yl)-1,2,4-triazin-6-carboxamide] |
| > 1 nM | CC1(c2ccc(Nc3nc(N4CCCC(N5CCN(c6ccccc6)C5=O)C4)nnc3C(N)=O)cc2)CCN(C2CCN(c3ccc4c(c3)C(=O)N(C3CCC(=O)NC3=O)C4=O)CC2)CC1 (stereo not drawn) [Compound 091, 5-((4-(1′-(2-(2,6-dioxopiperidin-3-yl)-1,3-dioxoisoindol-5-yl)-4-methyl-[1,4′-bipiperidin]-4-yl)phenyl)amino)-3-(3-(2-oxo-3-phenylimidazolin-1-yl)piperidin-1-yl)-1,2,4-triazin-6-carboxamide] |
| > 1 nM | CC1(c2ccc(Nc3nc(N4CCCC(N5CCN(c6ccccc6)C5=O)C4)nnc3C(N)=O)cc2)CCN(C2CN(c3ccc4c(c3)C(=O)N(C3CCC(=O)NC3=O)C4=O)C2)CC1 (stereo not drawn) [Compound 092, 5-((4-(1-(1-(2-(2,6-dioxopiperidin-3-yl)-1,3-dioxoisoindol-5-yl)azetidine-3-yl)-4-methylpiperidin-4-yl)phenyl)amino)-3-(3-(2-oxo-3-phenylimidazolin-1-yl)piperidin-1-yl)-1,2,4-triazin-6-carboxamide] |
| > 1 nM | NC(=O)c1nnc(N2CCCC(N3CCN(c4ccccc4)C3=O)C2)nc1Nc1ccc2c(c1)CCN(C1CN(c3ccc4c(c3)C(=O)N(C3CCC(=O)NC3=O)C4=O)C1)C2 (stereo not drawn) [Compound 093] |
| < 1 nM | NC(=O)c1nnc(N2CCCC(N3CCN(c4ccccc4)C3=O)C2)nc1Nc1ccc2c(c1)CCN(CC1CCN(c3ccc4c(c3)C(=O)N(C3CCC(=O)NC3=O)C4=O)CC1)C2 (stereo not drawn) [Compound 094, 5-((2-((1-(2-(2,6-dioxopiperidin-3-yl)-1,3-dioxoisoindol-5-yl)piperidin-4-yl)methyl)-1,2,3,4-tetrahydroisoquinolin-6-yl)amino)-3-(3-(2-oxo-3-phenylimidazolin-1-yl)piperidin-1-yl)-1,2,4-triazin-6-carboxamide] |
| < 1 nM | NC(=O)c1nnc(N2CCCC(N3CCN(c4ccccc4)C3=O)C2)nc1Nc1ccc(N2CCN(CC3CCN(c4ccc5c(c4)C(=O)N(C4CCC(=O)NC4=O)C5=O)CC3)CC2)cc1 (stereo not drawn) [Compound 095, 5-((4-(4-((1-(2-(2,6-dioxopiperidin-3-yl)-1,3-dioxoisoindol-5-yl)piperidin-4-yl)methyl)piperazin-1-yl)phenyl)amino)-3-(3-(2-oxo-3-phenylimidazolin-1-yl)piperidin-1-yl)-1,2,4-triazin-6-carboxamide] |
| < 1 nM | NC(=O)c1nnc(N2CCCC(N3CCN(c4ccccc4)C3=O)C2)nc1Nc1ccc(C2CCN(C3CCN(c4ccc5c(c4)C(=O)N(C4CCC(=O)NC4=O)C5=O)CC3)CC2)cc1 (stereo not drawn) [Compound 096, 5-((4-(1′-(2-(2,6-dioxopiperidin-3-yl)-1,3-dioxoisoindol-5-yl)-[1,4′-bipiperidin]-4-yl)phenyl)amino)-3-(3-(2-oxo-3-phenylimidazolin-1-yl)piperidin-1-yl)-1,2,4-triazin-6-carboxamide] |
| > 1 nM | NC(=O)c1nnc(N2CCCC(N3CCN(c4ccccc4)C3=O)C2)nc1Nc1ccc(N2CCC(N3CCN(CC#Cc4ccc5c(c4)CN(C4CCC(=O)NC4=O)C5=O)CC3)CC2)cc1 (stereo not drawn) [Compound 097] |
| < 1 nM | NC(=O)c1nnc(N2CCCC(N3CCN(c4ccccc4)C3=O)C2)nc1Nc1ccc(C2CCN(CC3CCN(c4cc5c(cc4F)C(=O)N(C4CCC(=O)NC4=O)C5=O)CC3)CC2)cc1 (stereo not drawn) [Compound 098, 5-((4-(1-((1-(2-(2,6-dioxopiperidin-3-yl)-6-fluoro-1,3-dioxoisoindol-5-yl)piperidin-4-yl)methyl)piperidin-4-yl)phenyl)amino)-3-(3-(2-oxo-3-phenylimidazolin-1-yl)piperidin-1-yl)-1,2,4-triazin-6-carboxamide] |
| < 1 nM | NC(=O)c1nnc(N2CCCC(N3CCN(c4ccccc4)C3=O)C2)nc1Nc1ccc(C2CCN(CC3CCN(c4ccc5c(c4)C(=O)N(C4CCC(=O)NC4=O)C5)CC3)CC2)cc1 (stereo not drawn) [Compound 099, 5-((4-(1-((1-(2-(2,6-dioxopiperidin-3-yl)-3-oxoisoindol-5-yl)piperidin-4-yl)methyl)piperidin-4-yl)phenyl)amino)-3-(3-(2-oxo-3-phenylimidazolin-1-yl)piperidin-1-yl)-1,2,4-triazin-6-carboxamide] |
| < 1 nM | NC(=O)c1nnc(N2CCCC(N3CCN(c4ccccc4)C3=O)C2)nc1Nc1ccc(C2CCN(CC3CCN(c4ccc5c(c4)CN(C4CCC(=O)NC4=O)C5=O)CC3)CC2)cc1 (stereo not drawn) [Compound 100, 5-((4-(1-((1-(2-(2,6-dioxopiperidin-3-yl)-1-oxoisoindol-5-yl)piperidin-4-yl)methyl)piperidin-4-yl)phenyl)amino)-3-(3-(2-oxo-3-phenylimidazolin-1-yl)piperidin-1-yl)-1,2,4-triazin-6-carboxamide] |
| < 1 nM | Cn1c(=O)n(C2CCC(=O)NC2=O)c2ccc(N3CCC(CN4CCC(c5ccc(Nc6nc(N7CCCC(N8CCN(c9ccccc9)C8=O)C7)nnc6C(N)=O)cc5)CC4)CC3)cc21 (stereo not drawn) [Compound 101] |
| < 1 nM | CN1CCN(C2CC3CC2N(c2nnc(C(N)=O)c(Nc4ccc(C5CCN(CC6CCN(c7ccc8c(c7)C(=O)N(C7CCC(=O)NC7=O)C8=O)C6)CC5)cc4)n2)C3)C1=O (stereo not drawn) [Compound 102, 5-((4-(1-((1-(2-(2,6-dioxopiperidin-3-yl)-1,3-dioxoisoindol-5-yl)pyrrolidin-3-yl)methyl)piperidin-4-yl)phenyl)amino)-3-(6-(3-methyl-2-oxoimidazolin-1-yl)-2-azabicyclo[2.2.1]heptan-2-yl)-1,2,4-triazin-6-carboxamide] |
| < 1 nM | CN1CCN(C2CC3CC2N(c2nnc(C(N)=O)c(Nc4ccc(C5CCN(C6CN(c7ccc8c(c7)C(=O)N(C7CCC(=O)NC7=O)C8=O)C6)CC5)cc4)n2)C3)C1=O (stereo not drawn) [Compound 103, 5-((4-(1-(1-(2-(2,6-dioxopiperidin-3-yl)-1,3-dioxoisoindol-5-yl)azetidin-3-yl)piperidin-4-yl)phenyl)amino)-3-(6-(3-methyl-2-oxoimidazolin-1-yl)-2-azabicyclo[2.2.1]heptan-2-yl)-1,2,4-triazin-6-carboxamide] |
| < 1 nM | CN1CCN(C2CC3CC2N(c2nnc(C(N)=O)c(Nc4ccc(C5(C)CCN(C6CCN(c7ccc8c(c7)C(=O)N(C7CCC(=O)NC7=O)C8=O)CC6)CC5)cc4)n2)C3)C1=O (stereo not drawn) [Compound 104, 5-((4-(1′-(2-(2,6-dioxopiperidin-3-yl)-1,3-dioxoisoindol-5-yl)-4-methyl-[1,4′-bipiperidin]-4-yl)phenyl)amino)-3-(6-(3-methyl-2-oxoimidazolin-1-yl)-2-azabicyclo[2.2.1]heptan-2-yl)-1,2,4-triazin-6-carboxamide] |
| < 1 nM | CN1CCN(C2CC3CC2N(c2nnc(C(N)=O)c(Nc4ccc(C5(C)CCN(C6CN(c7ccc8c(c7)C(=O)N(C7CCC(=O)NC7=O)C8=O)C6)CC5)cc4)n2)C3)C1=O (stereo not drawn) [Compound 105, 5-((4-(1-(1-(2-(2,6-dioxopiperidin-3-yl)-1,3-dioxoisoindol-5-yl)azetidin-3-yl)-4-methylpiperidin-4-yl)phenyl)amino)-3-(6-(3-methyl-2-oxoimidazolin-1-yl)-2-azabicyclo[2.2.1]heptan-2-yl)-1,2,4-triazin-6-carboxamide] |
| < 1 nM | CN1CCN(C2CC3CC2N(c2nnc(C(N)=O)c(Nc4ccc5c(c4)CCN(C4CN(c6ccc7c(c6)C(=O)N(C6CCC(=O)NC6=O)C7=O)C4)C5)n2)C3)C1=O (stereo not drawn) [Compound 106, 5-((2-(1-(2-(2,6-dioxopiperidin-3-yl)-1,3-dioxoisoindol-5-yl)azetidine-3-yl)-1,2,3,4-tetrahydroisoquinolin-6-yl)amino)-3-(6-(3-methyl-2-oxoimidazolin-1-yl)-2-azabicyclo[2.2.1]heptan-2-yl)-1,2,4-triazin-6-carboxamide] |
| < 1 nM | CN1CCN(C2CC3CC2N(c2nnc(C(N)=O)c(Nc4ccc5c(c4)CCN(CC4CCN(c6ccc7c(c6)C(=O)N(C6CCC(=O)NC6=O)C7=O)CC4)C5)n2)C3)C1=O (stereo not drawn) [Compound 107, 5-((2-((1-(2-(2,6-dioxopiperidin-3-yl)-1,3-dioxoisoindol-5-yl)piperidin-4-yl)methyl)-1,2,3,4-tetrahydroisoquinolin-6-yl)amino)-3-(6-(3-methyl-2-oxoimidazolin-1-yl)-2-azabicyclo[2.2.1]heptan-2-yl)-1,2,4-triazin-6-carboxamide] |
| > 1 nM | CN1CCN(C2CC3CC2N(c2nnc(C(N)=O)c(Nc4ccc(N5CCN(CC6CCN(c7ccc8c(c7)C(=O)N(C7CCC(=O)NC7=O)C8=O)CC6)CC5)cc4)n2)C3)C1=O (stereo not drawn) [Compound 108, 5-((4-(4-((1-(2-(2,6-dioxopiperidin-3-yl)-1,3-dioxoisoindol-5-yl)piperidin-4-yl)methyl)piperazin-1-yl)phenyl)amino)-3-(6-(3-methyl-2-oxoimidazolin-1-yl)-2-azabicyclo[2.2.1]heptan-2-yl)-1,2,4-triazin-6-carboxamide] |
| < 1 nM | CN1CCN(C2CC3CC2N(c2nnc(C(N)=O)c(Nc4ccc(C5CCN(C6CCN(c7ccc8c(c7)C(=O)N(C7CCC(=O)NC7=O)C8=O)CC6)CC5)cc4)n2)C3)C1=O (stereo not drawn) [Compound 109, 5-((4-(1′-(2-(2,6-dioxopiperidin-3-yl)-1,3-dioxoisoindol-5-yl)-[1,4′-bipiperidin]-4-yl)phenyl)amino)-3-(6-(3-methyl-2-oxoimidazolin-1-yl)-2-azabicyclo[2.2.1]heptan-2-yl)-1,2,4-triazin-6-carboxamide] |
